{"source": "paper PMC8995209", "about": "(Cell, 2022)", "molecular_target": "iaaH (Agrobacterium tumefaciens, UniProt P0A2X2)", "sequence (P0A2X2 whole entry)": "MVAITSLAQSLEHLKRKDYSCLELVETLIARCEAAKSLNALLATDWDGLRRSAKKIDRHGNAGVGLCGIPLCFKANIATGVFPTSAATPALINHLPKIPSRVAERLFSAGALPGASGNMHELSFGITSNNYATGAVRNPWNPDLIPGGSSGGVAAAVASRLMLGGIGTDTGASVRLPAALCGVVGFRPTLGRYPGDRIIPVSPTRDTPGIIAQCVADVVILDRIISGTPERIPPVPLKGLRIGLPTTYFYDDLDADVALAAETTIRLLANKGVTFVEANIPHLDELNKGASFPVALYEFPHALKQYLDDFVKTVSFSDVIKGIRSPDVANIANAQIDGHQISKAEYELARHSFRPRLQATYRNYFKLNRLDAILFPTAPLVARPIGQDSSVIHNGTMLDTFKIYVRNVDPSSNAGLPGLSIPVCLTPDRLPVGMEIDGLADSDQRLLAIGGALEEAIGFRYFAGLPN", "format": "cell-based", "conditions": "hydrolysis to NAA; 48 h conditioning", "data": [{"smiles": "NC(=O)Cc1cccc2ccccc12", "note": "[NAM, 1-naphthaleneacetamide]", "values": [{"measurement": "conditioned medium of iaaH-expressing CHO-K1 cells, auxin read out by Receiver c", "value": "also able to produce the auxin NAA"}]}]}
